Assay results reported in patent publication US20120122727A1, “IN VITRO METHOD FOR PREDICTING WHETHER A COMPOUND IS GENOTOXIC IN VIVO” (priority 2009, published 2012).
Where two headings read alike, the source gives them in different places.

Experiments:
[1] = system: primary mouse hepatocytes; test: Class prediction true GTX vs false GTX by PAM from hepatocyte gene expression
Method: PAM uses gene expression data to calculate the shrunken centroid for each class and identifies the specific genes that determine the centroid most. Based on the nearest shrunken centroid, PAM is also capable of predicting to which class an unknown sample belongs (27). Class prediction was performed after 24 h and 48 h of exposure.
For this analysis, the gene list with differentially expressed probe sets was used. For each exposure period, 3 sets of genes (classifiers) were generated by PAM, using all ten treatments, based on the smallest estimated misclassification error rate (generated by 10-fold cross-validation) and a >80% predicted test probability. This was done by using 2 experiments as training set and the third experiment for validation. This was done for all 3 possible combinations, each time leaving out another experiment. For each time point, the classifiers that were in common between the three training sets, were set as the final classifier set for that time point
For the purpose of validating the class discrimination models with the final classifier sets, gene expression data were generated for two additional true GTX compounds, phenacetin and DMBA, and for three False GTX compounds, cur, ethylacrylate and resorcinol and the vehicle control for exposure periods of 24 and 48 h.

[2] = cited from earlier work
[3] = 24 h exposure, independent triplicate treatments
[4] = 48 h exposure, independent triplicate treatments
[5] = PAM class prediction, 24 h, Exp 1
[6] = PAM class prediction, 24 h, Exp 2
[7] = PAM class prediction, 24 h, Exp 3
[8] = PAM class prediction, 48 h, Exp 1
[9] = PAM class prediction, 48 h, Exp 2
[10] = PAM class prediction, 48 h, Exp 3
[11] = known class of the validation compound (GTX = true GTX, FP-GTX = false GTX)

Structure (SMILES) | class prediction (true GTX / false GTX) [1, 3] | class prediction (true GTX / false GTX) [1, 4] | Prediction 24 h Exp 1 [1, 5] | Prediction 24 h Exp 2 [1, 6] | Prediction 24 h Exp 3 [1, 7] | Prediction 48 h Exp 1 [1, 8] | Prediction 48 h Exp 2 [1, 9] | Prediction 48 h Exp 3 [1, 10] | predicted test probability ([1]; both time points (24 and 48 h)) | Genotoxic class [2, 11] | Prediction 24 h Exp 1 [1] | Prediction 24 h Exp 2 [1] | Prediction 24 h Exp 3 [1] | Prediction 48 h Exp 1 [1] | Prediction 48 h Exp 2 [1] | Prediction 48 h Exp 3 [1] | class prediction (true GTX / false GTX) [1] | predicted test probability [1] | Genotoxic class ([2]; in vivo) | predicted test probability ([1]; mouse)
Cc1c2ccccc2c(C)c2c1ccc1ccccc12 [DMBA] | classified correctly | classified correctly | GTX | GTX | GTX | GTX | GTX | GTX | 100% | GTX |  |  |  |  |  |  |  |  |  | 
CCOc1ccc(NC(C)=O)cc1 [Phen] |  |  | GTX | GTX | GTX | FP-GTX | FP-GTX | FP-GTX |  | GTX |  |  |  |  |  |  |  |  |  | 
COc1cc(/C=C/C(=O)CC(=O)/C=C/c2ccc(O)c(OC)c2)ccc1O [cur] |  |  |  |  |  |  |  |  |  |  | FP-GTX | FP-GTX | FP-GTX | FP-GTX | FP-GTX | FP-GTX | classified correctly | 100% | FP-GTX | 
C=CC(=O)OCC [ethylacrylate] | classified correctly | classified correctly | FP-GTX | FP-GTX | FP-GTX | FP-GTX | FP-GTX | FP-GTX | 100% |  |  |  |  |  |  |  |  |  | FP-GTX | 
Oc1cccc(O)c1 [resorcinol] |  |  |  |  |  |  |  |  |  | FP-GTX | FP-GTX | FP-GTX | FP-GTX | FP-GTX | FP-GTX | FP-GTX | classified correctly |  |  | 100%
